Measurements reported in patent publication US8404696B2, “Quinazoline-2,4-dione derivative, and medical compositions for the prophylaxis and treatment of cranial nerve disease containing the same” (Shin Poong Pharmaceutical Co., Ltd., priority 2008, dated 2013).

Legend:
[1] = test system: mixed culture of nerve cells-glial cells; test: Protecting effect on NMDA-induced nerve cell death (LDH release); format: cell-based, ICR mouse; details: 100 μM NMDA, LDH release after 24 hours
Summary of the method: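 Embryonic day-14 ICR mouse cortical neurons seeded on cortical glia, Ara-C-treated, then exposed at day 12–15 for 20 min to 100 μM NMDA with compound at 1 or 2 μg/mL. LDH released 24 h later measured colorimetrically as a cell-death index.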

thoracic aorta of rats = test: Relaxing effect on thoracic aorta contracted by phenylephrine (organ bath); parameters: species or system rats of SD species; details: 67 μg/mL, phenylephrine 0.5 μM, mean n = 3; for inhibition at 67 µg/mL: Rattus norvegicus, read-out: Relaxation percentage
Summary of the method: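 Thoracic aortic rings (2 mm) from ether-anesthetized male SD rats (250-300 g) were mounted in Krebs buffer gassed with 95% O2/5% CO2 and equilibrated at 1.0 g basal tension for 90 min. After stable contraction with phenylephrine (0.5 μM), compounds were added and relaxation recorded.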

SH-SY5Y cells [2] = test: Inhibitory effect on H2O2-mediated cytotoxicity (MTT assay); format: cell-based, humans; details: 200 μM hydrogen peroxide, 24 hours
Method: SH-SY5Y cells that are oriented by nerve cell line from humans were cultured with 3×10^4 cell concentration in 96 well plate, and the sample was treated. After 30 minutes, 200 μM hydrogen peroxide was treated to induce toxicity for 24 hours. After the reaction was completed, the survival rate of cells was measured by MTT assay.

[3] = test system: superoxide dismutase (SOD); test: Increase of superoxide dismutase (SOD) activity in mouse brain cells; format: cell-based; details: 100 μg/ml
Method: ROS inhibitory effect of compounds was represented to the dose suppressing 50% of production of reactive oxygen compared to control. […] The activity of superoxide dismutase (SOD) was measured by using a kit acquired in Sigma.

SH-SY5Y cells [4] = test: Inhibitory effect on ZnSO4-mediated cytotoxicity (MTT assay); format: cell-based, humans; details: compound 50 μg/ml; 600 μM zinc sulfate, 24 hours
Method: SH-SY5Y cells were cultured with 3×10^4 cell concentration in 96 well plates, and the compound (50 μg/ml) was treated. After 30 minutes, 600 μM of zinc sulfate was treated to induce toxicity for 24 hours and survival rate of cells was measured by MTT assay.

[5] = test system: pentylentetrazole (PTZ)-induced convulsion; test: Anti-convulsant effect, pentylentetrazole (PTZ) test; format: in vivo; details: 10 mg/kg intraperitoneally, PTZ 80 mg/kg subcutaneously; for mortality rate / Induction percentage of convulsion: (animals/total); for mortality rate: negative control 70(17/23); for Induction percentage of convulsion: negative control 100(23/23); for Initiation time of convulsion: negative control 5.0 ± 0.7; for Duration of convulsion: negative control 46.7 ± 3.3
Summary of the method: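 Compound was given intraperitoneally at 10 mg/kg before PTZ challenge. The read-outs were time to convulsion onset, time until convulsions fully disappeared, and mortality.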

mouse brain cells = test: Inhibitory effect on ROS production in brain cells (DCF-DA, NMDA-induced); format: cell-based; details: dose suppressing 50% of production of reactive oxygen compared to control; mouse brain cells

Molecule | Inhibitory effect of cell death by NMDA-induced excitable neurotoxicity ([1]; 1 μg/ml compound) [%] | Inhibitory effect of cell death by NMDA-induced excitable neurotoxicity ([1]; 2 μg/ml compound) [%] | inhibition at 67 µg/mL (thoracic aorta of rats) [%] | inhibitory percentage, oxidative toxicity induced by hydroperoxide (SH-SY5Y cells [2]; 5 μg/ml) [%] | inhibitory percentage, oxidative toxicity induced by hydroperoxide (SH-SY5Y cells [2]; 50 μg/ml) [%] | Increase of SOD activity, compared to control [3] | inhibitory percentage, zinc-induced toxicity (SH-SY5Y cells [4]) [%] | mortality rate [5] | Induction percentage of convulsion [5] | Initiation time of convulsion [5] [min] | Duration of convulsion [5] [min] | ROS inhibitory effect ID50 (mouse brain cells) [µg/mL] | Relaxation percentage (thoracic aorta of rats) [%]
CC(=O)N(CCCCN(CCCn1c(=O)[nH]c2ccccc2c1=O)C(C)=O)CCCn1c(=O)[nH]c2ccccc2c1=O [Compound 4, N-(4-{acetyl-[3-(2,4-dioxo-1,4-dihydro-2H-quinazolin-3-yl)propyl]amino}butyl)-N-[3-(2,4-dioxo-1,4-dihydro-2H-quinazolin-3-yl)propyl]acetamide] | 22.3 | 7.4 | 7.7 | 2.0 ± 0.4 | 18.1 ± 2.1 | 0.6 ± 2.2 | – | – | – | – | – | – | –
CS(=O)(=O)N(CCCCNCCCn1c(=O)[nH]c2ccccc2c1=O)CCCn1c(=O)[nH]c2ccccc2c1=O [Compound 12, N-[3-(2,4-dioxo-1,4-dihydro-2H-quinazolin-3-yl)propyl]-N-{4-[3-(2,4-dioxo-1,4-dihydro-2H-quinazolin-3-yl)propylamino]butyl}methansulfonamide] | 5.7 | 2.6 | 10.9 | – | – | 2.8 ± 1.8 | 12.7 ± 4.3 | 67(4/6) % | 100(6/6) % | 13.7 ± 6.2 | 39.3 ± 8.8 | – | –
[3-(2,4-dioxo-1,4-dihydro-2H-quinazolin-3-yl)propyl]-{4-[3-(2,4-dioxo-1,4-dihydro-2H-quinazolin-3-yl)propylamino]butyl}heptanoic amide [Compound 35] | 32.5 | 35.7 | – | – | – | 3.4 ± 7.9 | 9.1 ± 1.8 | 33(2/6) % | 100(6/6) % | 5.4 ± 1.6 | 33.3 ± 7.3 | 140.0 ± 18.6 | 42.6
